# Test results from US7964607B2, “Pyrazolo[3,4-d]pyrimidine compounds” (Pfizer Inc., priority 2007, dated 2011).
# Biological target: T1, human recombinant PDE9 enzyme (Homo sapiens, UniProt O76083)
# T1 construct: made in house; host or cells: SF-9 insect cells
# Experiment: Phosphodiesterase 9 (PDE9) inhibitory activity, Scintillation Proximity (SPA) assay
# Assay type: biochemical
# Conditions: not given
# How it was run: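 Scintillation proximity read-out of [3H]cGMP hydrolysis after 30 min at room temperature, with enzyme addition starting the reaction. The enzyme was human recombinant PDE9 expressed in SF-9 cells, titrated to keep substrate turnover at 20% or less. Compound wells held 2% DMSO final, and background was defined with excess PDE inhibitor.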
# T1 sequence (O76083 whole entry): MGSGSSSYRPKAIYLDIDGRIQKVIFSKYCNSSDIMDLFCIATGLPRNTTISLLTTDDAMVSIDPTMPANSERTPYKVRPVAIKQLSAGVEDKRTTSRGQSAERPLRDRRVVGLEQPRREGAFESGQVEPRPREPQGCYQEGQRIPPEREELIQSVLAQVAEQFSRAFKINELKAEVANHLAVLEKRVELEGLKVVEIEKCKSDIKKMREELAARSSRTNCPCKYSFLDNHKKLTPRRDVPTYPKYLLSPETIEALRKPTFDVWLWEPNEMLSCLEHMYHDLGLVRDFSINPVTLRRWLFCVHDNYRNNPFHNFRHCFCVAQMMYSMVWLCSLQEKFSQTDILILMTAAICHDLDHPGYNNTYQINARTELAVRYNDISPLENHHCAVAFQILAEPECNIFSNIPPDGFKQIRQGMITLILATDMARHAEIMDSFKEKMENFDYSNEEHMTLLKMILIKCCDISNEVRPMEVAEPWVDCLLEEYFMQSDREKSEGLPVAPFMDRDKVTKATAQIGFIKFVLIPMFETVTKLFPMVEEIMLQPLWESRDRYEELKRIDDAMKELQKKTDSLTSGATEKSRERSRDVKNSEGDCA
row,IC50 [nM],SMILES
1,1.7,"C[C@@H]1CN(Cc2cccc(F)c2)C[C@H]1c1nc2c(cnn2C2CCOCC2)c(=O)[nH]1 [Example 89, 6-[(3S,4S)-1-(3-fluorobenzyl)-4-methylpyrrolidin-3-yl]-1-(tetrahydro-2H-pyran-4-yl)-1,5-dihydro-4H-pyrazolo[3,4-d]pyrimidin-4-one]"
2,7.13,"C[C@@H]1CN(Cc2ccc(F)cc2)C[C@H]1c1nc2c(cnn2C2CCOCC2)c(=O)[nH]1 [Example 96, 6-[(3S,4S)-1-(4-fluorobenzyl)-4-methylpyrrolidin-3-yl]-1-(tetrahydro-2H-pyran-4-yl)-1,5-dihydro-4H-pyrazolo[3,4-d]pyrimidin-4-one]"
3,7.93,"C[C@@H]1CN(Cc2ccccc2F)C[C@H]1c1nc2c(cnn2C2CCOCC2)c(=O)[nH]1 [Example 98, 6-[(3S,4S)-1-(2-fluorobenzyl)-4-methylpyrrolidin-3-yl]-1-(tetrahydro-2H-pyran-4-yl)-1,5-dihydro-4H-pyrazolo[3,4-d]pyrimidin-4-one]"
4,7.94,"COc1ccc(CN2C[C@@H](C)[C@H](c3nc4c(cnn4C4CCOCC4)c(=O)[nH]3)C2)cc1 [Example 101, 6-[(3S,4S)-1-(4-methoxybenzyl)-4-methylpyrrolidin-3-yl]-1-(tetrahydro-2H-pyran-4-yl)-1,5-dihydro-4H-pyrazolo[3,4-d]pyrimidin-4-one]"

row,SMILES,IC50 [nM]
1,"Cc1ccc(CN2C[C@@H](C)[C@H](c3nc4c(cnn4C4CCOCC4)c(=O)[nH]3)C2)cn1 [Example 79, 6-{(3S,4S)-4-methyl-1-[(6-methylpyridin-3-yl)methyl]pyrrolidin-3-yl}-1-(tetrahydro-2H-pyran-4-yl)-1,5-dihydro-4H-pyrazolo[3,4-d]pyrimidin-4-one]",3.72

# Same assay, conditions: human recombinant PDE9 from SF-9 cells; 50 nM [3H]cGMP; room temperature, 30 min; Examples 3-114; read-out: G5678A (U): IC50
row,SMILES,IC50 [nM]
1,"Cc1nccc(CN2C[C@@H](C)[C@H](c3nc4c(cnn4C4CCOCC4)c(=O)[nH]3)C2)n1 [Example 78, 6-{(3S,4S)-4-methyl-1-[(2-methylpyrimidin-4-yl)methyl]pyrrolidin-3-yl}-1-(tetrahydro-2H-pyran-4-yl)-1,5-dihydro-4H-pyrazolo[3,4-d]pyrimidin-4-one]",4.35
2,"C[C@@H]1CN(Cc2nc3cnccc3n2C)C[C@H]1c1nc2c(cnn2C2CCOCC2)c(=O)[nH]1 [Example 81, 6-{(3S,4S)-4-methyl-1-[(1-methyl-1H-imidazo[4,5-c]pyridin-2-yl)methyl]pyrrolidin-3-yl}-1-(tetrahydro-2H-pyran-4-yl)-1,5-dihydro-4H-pyrazolo[3,4-d]pyrimidin-4-one]",2.92
3,"Cc1cc(CN2C[C@@H](C)[C@H](c3nc4c(cnn4C4CCOCC4)c(=O)[nH]3)C2)n(C)n1 [Example 82, 6-{(3S,4S)-1-[(1,3-dimethyl-1H-pyrazolo-5-yl)methyl]-4-methylpyrrolidin-3-yl}-1-(tetrahydro-2H-pyran-4-yl)-1,5-dihydro-4H-pyrazolo[3,4-d]pyrimidin-4-one]",5.18
4,"C[C@@H]1CN(Cc2ccc3nsnc3c2)C[C@H]1c1nc2c(cnn2C2CCOCC2)c(=O)[nH]1 [Example 84, 6-[(3S,4S)-1-(2,1,3-benzothiadiazol-5-ylmethyl)-4-methylpyrrolidin-3-yl]-1-(tetrahydro-2H-pyran-4-yl)-1,5-dihydro-4H-pyrazolo[3,4-d]pyrimidin-4-one]",1.87
5,C[C@@H]1CN(Cc2cnc3ccccc3n2)C[C@H]1c1nc2c(cnn2C2CCOCC2)c(=O)[nH]1 [Example 85],0.903
6,"C[C@@H]1CN(Cc2ccnc3ccccc23)C[C@H]1c1nc2c(cnn2C2CCOCC2)c(=O)[nH]1 [Example 86, 6-[(3S,4S)-4-methyl-1-(quinolin-4-ylmethyl)pyrrolidin-3-yl]-1-(tetrahydro-2H-pyran-4-yl)-1,5-dihydro-4H-pyrazolo[3,4-d]pyrimidin-4-one]",1.44
7,"Cc1nn(C2CCOCC2)c2nc([C@@H]3CN(Cc4ccccc4)C[C@H]3C)[nH]c(=O)c12 [Example 88, 6-[(3S,4S)-1-benzyl-4-methylpyrrolidin-3-yl]-3-methyl-1-(tetrahydro-2H-pyran-4-yl)-1,5-dihydro-4H-pyrazolo[3,4-d]pyrimidin-4-one]",17.9
8,"C[C@@H]1CN(Cc2cc(F)cc(F)c2)C[C@H]1c1nc2c(cnn2C2CCOCC2)c(=O)[nH]1 [Example 90, 6-[(3S,4S)-1-(3,5-difluorobenzyl)-4-methylpyrrolidin-3-yl]-1-(tetrahydro-2H-pyran-4-yl)-1,5-dihydro-4H-pyrazolo[3,4-d]pyrimidin-4-one]",1.41
9,"Cc1cccc(CN2C[C@@H](C)[C@H](c3nc4c(cnn4C4CCOCC4)c(=O)[nH]3)C2)n1 [Example 95, 6-{(3S,4S)-4-methyl-1-[(6-methylpyridin-2-yl)methyl]pyrrolidin-3-yl}-1-(tetrahydro-2H-pyran-4-yl)-1,5-dihydro-4H-pyrazolo[3,4-d]pyrimidin-4-one]",3.92
10,"C[C@@H]1CN(Cc2ccc(F)cc2F)C[C@H]1c1nc2c(cnn2C2CCOCC2)c(=O)[nH]1 [Example 100, 6-[(3S,4S)-1-(2,4-difluorobenzyl)-4-methylpyrrolidin-3-yl]-1-(tetrahydro-2H-pyran-4-yl)-1,5-dihydro-4H-pyrazolo[3,4-d]pyrimidin-4-one]",22.7
11,"C[C@@H]1CN(Cc2ccccc2)C[C@H]1c1nc2c(cnn2C2CCSCC2)c(=O)[nH]1 [Example 102, 6-[(3S,4S)-1-benzyl-4-methylpyrrolidin-3-yl]-1-(tetrahydro-2H-thiopyran-4-yl)-1,5-dihydro-4H-pyrazolo[3,4-d]pyrimidin-4-one]",19.7
12,"COc1cccc(CN2C[C@@H](C)[C@H](c3nc4c(cnn4C4CCOCC4)c(=O)[nH]3)C2)c1 [Example 104, 6-[(3S,4S)-1-(3-methoxybenzyl)-4-methylpyrrolidin-3-yl]-1-(tetrahydro-2H-pyran-4-yl)-1,5-dihydro-4H-pyrazolo[3,4-d]pyrimidin-4-one]",3.98
13,"C[C@@H]1CN(Cc2cccc(C(F)(F)F)c2)C[C@H]1c1nc2c(cnn2C2CCOCC2)c(=O)[nH]1 [Example 105, 6-{(3S,4S)-4-methyl-1-[3-(trifluoromethyl)benzyl]pyrrolidin-3-yl}-1-(tetrahydro-2H-pyran-4-yl)-1,5-dihydro-4H-pyrazolo[3,4-d]pyrimidin-4-one]",3.29
14,"C[C@@H]1CN(Cc2c(F)cccc2F)C[C@H]1c1nc2c(cnn2C2CCOCC2)c(=O)[nH]1 [Example 106, 6-[(3S,4S)-1-(26-difluorobenzyl)-4-methylpyrrolidin-3-yl]-1-(tetrahydro-2H-pyran-4-yl)-1,5-dihydro-4H-pyrazolo[3,4-d]pyrimidin-4-one]",8.06
15,"CC[C@@H]1CN(Cc2ccc(OC)nc2)C[C@H]1c1nc2c(cnn2C2CCOCC2)c(=O)[nH]1 [Example 108, 6-{(3S,4S)-4-ethyl-1-[(6-methoxypyridin-3-yl)methyl]pyrrolidin-3-yl}-1-(tetrahydro-2H-pyran-4-yl)-1,5-dihydro-4H-pyrazolo[3,4-d]pyrimidin-4-one]",3.11

# Now from value to compound:
row,IC50 [nM],SMILES
1,3.72,"C[C@@H]1CN(Cc2ccc(C(F)(F)F)nc2)C[C@H]1c1nc2c(cnn2C2CCOCC2)c(=O)[nH]1 [Example 80, 6-[(3S,4S)-4-methyl-1-{[6-(trifluoromethyl)pyridin-3-yl]methyl}pyrrolidin-3-yl]-1-(tetrahydro-2H-pyran-4-yl)-1,5-dihydro-4H-pyrazolo[3,4-d]pyrimidin-4-one]"
2,6.69,"C[C@@H]1CN(Cc2ccc(C(F)(F)F)cc2)C[C@H]1c1nc2c(cnn2C2CCOCC2)c(=O)[nH]1 [Example 91, 6-{(3S,4S)-4-methyl-1-[4-(trifluoromethyl)benzyl]pyrrolidin-3-yl}-1-(tetrahydro-2H-pyran-4-yl)-1,5-dihydro-4H-pyrazolo[3,4-d]pyrimidin-4-one]"
3,23.3,"Cc1nn(C2CCOCC2)c2nc([C@@H]3CN(Cc4cccnc4)C[C@H]3C)[nH]c(=O)c12 [Example 92, 3-methyl-6-[(3S,4S)-4-methyl-1-(pyridin-3-ylmethyl)pyrrolidin-3-yl]-1-(tetrahydro-2H-pyran-4-yl)-1,5-dihydro-4H-pyrazolo[3,4-d]pyrimidin-4-one]"
4,24.3,"Cc1ncc(CN2C[C@@H](C)[C@H](c3nc4c(c(C)nn4C4CCOCC4)c(=O)[nH]3)C2)cn1 [Example 93, 3-methyl-6-{(3S,4S)-4-methyl-1-[(2-methylpyrimidin-5-yl)methyl]pyrrolidin-3-yl}-1-(tetrahydro-2H-pyran-4-yl)-1,5-dihydro-4H-pyrazolo[3,4-d]pyrimidin-4-one]"
5,14.2,"COc1ccc(CN2C[C@@H](C)[C@H](c3nc4c(c(C)nn4C4CCOCC4)c(=O)[nH]3)C2)cn1 [Example 94, 6-{(3S,4S)-1-[(6-methoxypyridin-3yl)methyl]-4-methylpyrrolidin-3-yl}-3methyl-1-(tetrahyrdro-2H-pyran-4-yl)-1,5-dihydro-4H-pyrazolo[3,4-d]pyrimidin-4-one]"
6,12.8,"C[C@@H]1CN(Cc2ccccc2C(F)(F)F)C[C@H]1c1nc2c(cnn2C2CCOCC2)c(=O)[nH]1 [Example 99, 6-{(3S,4S)-4-methyl-1-[2-(trifluoromethyl)benzyl]pyrrolidin-3-yl}-1-(tetrahydro-2H-pyran-4-yl)-1,5-dihydro-4H-pyrazolo[3,4-d]pyrimidin-4-one]"
7,15.2,"COc1ccccc1CN1C[C@@H](C)[C@H](c2nc3c(cnn3C3CCOCC3)c(=O)[nH]2)C1 [Example 103, 6-[(3S,4S)-1-(2-methoxybenzyl)-4-methylpyrrolidin-3-yl]-1-(tetrahydro-2H-pyran-4-yl)-1,5-dihydro-4H-pyrazolo[3,4-d]pyrimidin-4-one]"
8,4.33,"CC[C@@H]1CN(Cc2cnc(C)cn2)C[C@H]1c1nc2c(cnn2C2CCOCC2)c(=O)[nH]1 [Example 107, 6-{(3S,4S)-4-ethyl-1-[(5-methylpyrazin-2-yl)methyl]pyrrolidin-3-yl}-1-(tetrahydro-2H-pyran-4-yl)-1,5-dihydro-4H-pyrazolo[3,4-d]pyrimidin-4-one]"
